Experimental findings from PMC5642580, “Calyxin Y sensitizes cisplatin-sensitive and resistant hepatocellular carcinoma cells to cisplatin through apoptotic and autophagic cell death via SCF βTrCP-mediated eEF2K degradation” (Oncotarget, 2017) are described below.

Data set [1] has as its system HepG2/CDDP cells. Kind of data set: MTT cell viability assay. Type of data set: cell-based, human. The protocol: Human hepatocellular carcinoma HepG2 cells were purchased from Cell Bank of Shanghai Institute of Biochemistry and Cell Biology, Chinese Academy of Sciences (Shanghai, China). mtrDNA sequence analysis was done by the cell bank to confirm the species and cells were tested free from mycoplasma. CDDP-selected drug-resistant HepG2/CDDP cells were derived from HepG2 cells by utilizing serial passage in the presence of increasing CDDP concentrations. Briefly, cells were treated with CDDP (1 μM) for 72 h. The media and dead cells were removed, and cells were allowed to recover for a further 72 h and then were treated with a higher concentration of CDDP. This development period was carried out for approximately 6 months, and finally, we obtained the HepG2/CDDP cells. HepG2/CDDP cells were then continuously maintained in the presence of 20 μM CDDP for a further 3 months to maintain stability. All cells were cultured in DMEM media containing 10% fetal bovine serum and incubated with 100 U/ml penicillin and 100 μg/ml streptomycin (Thermo) at 37 °C under an atmosphere of 95% air and 5% CO2.
HepG2 and HepG2/CDDP cells were plated in 96-well plates at a density of 5000 cells in 200 μl medium per well and incubated overnight. The cells were treated with calyxin Y and/or CDDP for 24 h, 48 or 72 h. The cell viability of HepG2 and HepG2/CDDP cells was measured by MTT assay as described previously.
On the technique in general: Tetrazolium dyes change colour on reduction, which living cells bring about.

A short description of data set [2]: Hematological parameters of nude mice bearing HepG2/CDDP xenograft. Type of data set: in vivo, BALB/c nu/nu mice. The note with it: calyxin Y 20 mg/kg i.p. every other day and/or CDDP 4 mg/kg i.p. once per week, 19 days; mean ± S.D., n = 3. The protocol:
(§1) All animal procedures were performed according to comply with the ARRIVE guidelines, the U.K. Animals (Scientific Procedures) Act, 1986 and associated guidelines. The protocol was approved by the Institutional Animal Care and Use Committee at China Pharmaceutical University. Four-week-old BALB/c nu/nu mice (18-22 g) purchased from Shanghai Laboratory Animal Center of Chinese Academy of Sciences (Shanghai, China) were used for in vivo experiments. Animals were housed at a constant room temperature with a 12 h:12 h light/dark cycle and were provided a standard rodent diet and water. HepG2/CDDP cells were harvested and injected subcutaneously into the right flank (1 × 10^7 cells in 150 μl of cold PBS). […] (1) control group, mice were injected intraperitoneally (i.p.) with 10% DMSO + 90% normal saline (n = 6); (2) […] group: mice were injected i.p. with 20 mg/kg […] every other day (n = 6); (3) CDDP group: mice were injected i.p. with 4 mg/kg CDDP once per week (n = 6); (4) […] + CDDP group: mice were injected i.p. with 20 mg/kg […] every other day and 4 mg/kg CDDP once per week (n = 6). The tumor volume was determined by measuring length (l) and width (w) and calculating volume (V = 0.5 × l × w^2) at the indicated time points. At the end of treatment, the animals were sacrificed, and the tumors were removed and weighed for use in histology and protein expression studies. Using a standard saphenous vein blood collection technique, blood was drawn for hematologic and serum biochemistry analyses.

Data set [3] is described as follows: Hematological biochemical parameters of nude mice bearing HepG2/CDDP xenograft. The class given is in vivo, BALB/c nu/nu mice. The note with it: calyxin Y 20 mg/kg i.p. every other day and/or CDDP 4 mg/kg i.p. once per week, 19 days; mean ± S.D., n = 3. The protocol:
as §1

Data set [4] concerns HepG2/CDDP cells. Kind of data set: Western blot of cleaved caspase-3/7/PARP. The class given is cell-based, human. The note with it: CDDP 10 µM with or without calyxin Y 20 µM, 24 h. From the text: The procedures for Western blotting were described previously.
On the technique in general: Immunoblotting shows a protein as a band on a membrane.

The subject of data set [5] is HepG2 cells. Kind of data set: Annexin V/7-AAD staining assay (flow cytometry). The note with it: CDDP 10 µM with or without calyxin Y 20 µM, 24 h. The class given is cell-based, human. As for the experimental part:
HepG2 and HepG2/CDDP cells were plated on 6-well plates and incubated overnight. Next, the cells were treated with […] and/or CDDP for 24 h. Cells in 200 μl of binding buffer were stained with 5 μl of Annexin V-Alexa Fluor 647 ([…] Biotech Co., Ltd., China) and 5 μl of 7-AAD at room temperature for 15 min. The cells were then analyzed by flow cytometry with a BD Accuri C6 flow cytometer (Becton & Dickinson Company, Franklin Lakes, NJ, USA). The cells undergoing apoptosis are Annexin V positive.
Background: In flow cytometry, cells or beads pass a laser one at a time.

The subject of data set [6] is HepG2 cells. Nature of the data set: MTT cell viability assay. The note with it: 24 h. Type of data set: cell-based, human. As for the experimental part:
HepG2 and HepG2/CDDP cells were plated in 96-well plates at a density of 5000 cells in 200 μl medium per well and incubated overnight. The cells were treated with […] and/or CDDP for 24 h, 48 or 72 h. The cell viability of HepG2 and HepG2/CDDP cells was measured by MTT assay as described previously.

Data set [7] has as its system eEF2K in HepG2/CDDP cells. The note with it: calyxin Y 5, 10, 20 µM, 24 h. The protocol:
(§2) HepG2 and HepG2/CDDP cells were lysed in western blotting lysis buffer and centrifuged at 12000 g for 10 min. The procedures for Western blotting were described previously.

The test system of data set [8] is eEF2K in HepG2 cells. The note with it: calyxin Y 5, 10, 20 µM, 24 h. The protocol: as §2
For data set [9], the system named is eEF2K mRNA in HepG2 cells. The note with it: calyxin Y 5, 10, 20 µM, 24 h. As for the experimental part:
(§3) Total RNA samples from HepG2 and HepG2/CDDP cells were extracted using RNAiso Plus reagent following the manufacturer’s protocols. RNA (1 μg) was reverse-transcribed using a ReverTra Ace qPCR RT-Kit (Toyobo Life Science, Osaka, Japan) in a MyCycler PCR system (BioRad Laboratories, Hercules, CA). SYBR Green PCR Master Mix was purchased from Toyobo Life Science. The 2^−ΔΔCT cycle threshold method was used for the calculation of relative differences in mRNA abundance with a LightCycler 480 qPCR System (Roche Molecular Biochemicals, Mannheim, Germany). Data were normalized to the expression of β-Actin. The results of qRT-PCR were expressed as fold-changes. The normalized value of the target mRNA of the control group is arbitrarily presented as 100. The pairs of primer for PCR were listed below: • eEF2K: (sense) 5′-[…]-3′; • eEF2K: (antisense) 5′-[…]-3′. • β-Actin: (sense) 5′-[…] CAATG-3′; • β-Actin: (antisense) 5′-[…]-3′.

The subject of data set [10] is eEF2K mRNA in HepG2/CDDP cells. The note with it: calyxin Y 5, 10, 20 µM, 24 h. The protocol:
as §3

Take `[NH2][Pt]([NH2])([Cl])[Cl]` [CDDP, cisplatin]: it took 95.4 µM to reach half-maximal inhibition in [1] (HepG2/CDDP cells, 24 h, MTT) (IC50). Besides, the resistance index in data set [1] (HepG2/CDDP vs HepG2, IC50 at 24 h) was approximately 6 fold. Also, in data set [2], the Hematocrit is given as 44.3 ± 2.8%, the Hemoglobin is 126.3 ± 4.7 g/L, the Lymphocytes is given as 8.9 ± 1.9 10^9/L and the Mean corpuscular hemoglobin is 13.4 ± 0.29 pg. In data set [2], the Mean corpuscular volume was 47.7 ± 3.5 fL, the Platelet counts is reported as 562.1 ± 19.2 10^9/L, the Red blood cells was 9.6 ± 0.67 10^12/L and the White blood cells is 9.9 ± 0.39 10^9/L. Further, in data set [3], the Alanine aminotransferase was determined as 40.2 ± 1.2 U/L, the Alkaline phosphatase came out at 125.4 ± 0.91 U/L and the Aspartate aminotransferase is listed as 158.5 ± 5.1 U/L. In addition, in data set [4], the “cleavage of caspase-7, caspase-3 and PARP” value is “did not cause the cleavage”. Also, the “apoptosis (AV+ cells)” value in data set [5] is on record as 31%. For the same compound, it took 16.7 µM to reach half-maximal inhibition in [6] (MTT) (IC50).

Calyxin Y: the cell viability result in [1] (HepG2/CDDP cells, calyxin Y 10, 20, 30, 40 µM, 24 h) is given as “inhibited the viability of HepG2/CDDP cells as much as it did that of HepG2 cells in a concentration-dependent manner”. The eEF2K expression entry in data set [7] is reported as “reduced eEF2K expression in a dose-dependent manner”. Further, in data set [8], the eEF2K expression entry is on record as “reduced eEF2K expression in a dose-dependent manner”. For the same compound, in data set [2], the Hematocrit came to 44.1 ± 1.4%, the Hemoglobin came to 138.4 ± 7.0 g/L, the Lymphocytes is given as 18.5 ± 1.8 10^9/L and the Mean corpuscular hemoglobin came out at 14.5 ± 0.13 pg. Besides, in data set [2], the Mean corpuscular volume is given as 47.3 ± 3.3 fL, the Platelet counts is 588.5 ± 80.5 10^9/L, the Red blood cells is 11.0 ± 0.27 10^12/L and the White blood cells is given as 15.2 ± 2.2 10^9/L. In data set [3], this compound had an Alanine aminotransferase of 37.5 ± 1.4 U/L, an Alkaline phosphatase of 115.4 ± 2.7 U/L and an Aspartate aminotransferase of 129.3 ± 3.5 U/L. The cell viability result in data set [6] (calyxin Y 10, 20, 30, 40 µM) was “concentration-dependent manner”. In [9], the “eEF2K mRNA levels” value is reported as “not significantly changed”. The “eEF2K mRNA levels” value in [10] is given as “not significantly changed”.

What is called IC50 is the concentration at which inhibition is half-maximal. A lower IC50 goes with higher potency.
